Source: patent publication EP3360891B1, “CELL PENETRATING PEPTIDES OF HUMAN ORIGIN” (Karlsruher Institut für Technologie, priority 2017, dated 2018)
Ends that are not written are not given here. Peptide text beside a SMILES is read from it. * marks the point of attachment. 5FAM = O=C1OC2(c3ccc(O)cc3Oc3cc(O)ccc32)c2ccc(C(=O)*)cc21

Assays:
[1] = tested on: HaCaT keratinocyte cell line; assay: Cellular uptake into HaCaT keratinocytes, flow cytometry; type: cell-based, human; settings: for cellular translocation: 25µM carboxyfluorescein labeled peptide, 1 h, 37°C, medium without FBS, mean of six measurements; for cell uptake in comparison to SSL-25: 1 h incubation at a concentration of 25µM
Protocol: Cells (20,000 cells per well) were seeded in 24-well plates and allowed to grow in standard growth medium containing Fetal Bovine Serum (FBS) overnight to attain a confluency of 70%. On the following day, the medium was discarded and cells were washed with phosphate buffered saline. Subsequently the peptide was added at a final concentration of 25µM in culture medium without FBS. The cells were incubated with the peptides labeled with carboxyfluorescein at the N-terminus at 37°C, 5% CO2 for 1 h in the dark. Following incubation of the cells with the peptides, the cells were washed three times with phosphate buffered saline. Subsequently, the cells were trypsinized using 0.25% Trypsin-EDTA for 10 min at 37°C, 5% CO2 to allow the protease dependent degradation of adsorbed surface bound peptides and to allow the detachment of cells from the 24-well plate for further analysis.
The cellular uptake of peptides was assessed by flow cytometry. 5000 events per sample were recorded and analyzed in the flow cytometer. A mean of six measurements was plotted with standard deviations being represented by error bars. […] These peptides translocate in HaCaT cells more efficiently as compared to SSL-25 (31%), SSL-9 E5A D9K (28%) and SSL-9 E5K D9K (22%).

in vitro = settings: human
Protocol: Said cells (7000 cells per well) were seeded in 96-well plate and were allowed to grow overnight in standard growth medium containing FBS. On the next day, the medium was discarded and the cells were washed thrice with phosphate buffered saline and incubated with the peptides at 10µM, 25µM, 50µM and 100µM in culture medium without FBS for 24 h at 37°C, 5% CO2. On the following day the cells were washed again with phosphate buffered saline. MTT reagent was added to cells at a final concentration of 1mg/ml in phosphate buffered saline and incubated for 2-4 h at 37°C, 5% CO2. Addition of MTT to the said cells yielded purple formazan crystals that were dissolved by addition of DMSO and the absorbance was measured at 570 nm.

[2] = Translocation into lipid vesicles (encapsulated chymotrypsin, Gly-Gln-Phe-Coumarin tag, method of Marks et al.); settings: after 10 min, without Zn2+ ions, Figure 4B
Text: Wimley, Spontaneous Membrane-Translocating Peptides by Orthogonal High-Throughput Screening, J Am Chem Soc, 133 (2011) 8995-9004].
In this method, the sequence Gly-Gln-Phe-Coumarin is C-terminally coupled to the peptides. Chymotrypsin is encapsulated in the vesicles, and this enzyme cuts the peptide between phenylalanine and coumarin. If accordingly labeled peptides penetrate into the vesicles, Chymotrypsin acts and cleaves the Phe-Coumarin bond which sets the coumarin free and causes a bathochromic shift of the fluorescence maximum of about 50 nm. which can be determined fluorimetrically.
Large unilamellar vesicles consisting of POPC / POPG 25:75 (mol:mol) were used in a concentration of 100 µM in buffer without or with 100 µM ZnSO4. […]

human erythrocytes = human erythrocytes 0.25 % hematocrit, 37 °C, 30 minutes, 2-fold dilutions from 1024 µM stock, relative to Triton X-100 lysis
Protocol: A concentrated solution of human erythrocytes was adjusted to a hematocrit of 0.5% by repeated washing with buffer solution (172 mM Tris-HCI, pH 7.6) and this diluted solution was equilibrated to 37 °C in a water bath.
The peptides were prepared as a 1024 µM stock solutions in buffer, added to the erythrocytes in sequential 2-fold dilutions and incubated at 37 °C for 30 minutes with occasional shaking.
The cells were centrifuged and the released hemoglobin in the supernatant was quantified using spectrophotometry. The obtained values were set in reference to the value obtained by complete lysis of all cells upon addition of Triton™ X-100.

| Compound | cellular translocation [1] | cell uptake in comparison to SSL-25 [1] | viability at 24 h, 100 µM (in vitro; HaCaT keratinocytes) | extent of translocation [2] | viability at 24 h, 100 µM (in vitro) | hemolysis (human erythrocytes) |
| --- | --- | --- | --- | --- | --- | --- |
| CC(C)C[C@H](NC(=O)CNC(=O)[C@H](CCCCN)NC(=O)[C@H](C)NC(=O)[C@H](CC(C)C)NC(=O)[C@H](CC(C)C)NC(=O)[C@H](CO)NC(=O)[C@H](CO)NC(=O)c1ccc2c(c1)C(=O)OC21c2ccc(O)cc2Oc2cc(O)ccc21)C(=O)N[C@@H](CCCCN)C(=O)O [SSL-9 E5A D9K] (5FAM-SSLLAKGLK-OH; N-terminus and C-terminus assumed) | 28% | reduced but comparable uptake | 70% |  |  |  |
| CC(C)C[C@H](NC(=O)CNC(=O)[C@H](CCCCN)NC(=O)[C@H](CCC(=O)O)NC(=O)[C@H](CC(C)C)NC(=O)[C@H](CC(C)C)NC(=O)[C@H](CO)NC(=O)[C@H](CO)NC(=O)c1ccc2c(c1)C(=O)OC21c2ccc(O)cc2Oc2cc(O)ccc21)C(=O)N[C@@H](CC(=O)O)C(=O)NCC(=O)N[C@@H](C)C(=O)N[C@@H](CCCCN)C(=O)N[C@@H](CCCCN)C(=O)O [SSL-13, SSLLEKGLDG AKK] (5FAM-SSLLEKGLDGAKK-OH) | 48% | higher cell uptake in comparison to SSL-25 |  | able to penetrate lipid membranes very efficiently | 70% |  |
| CC(C)C[C@H](NC(=O)CNC(=O)[C@H](CCCCN)NC(=O)[C@H](CCC(=O)O)NC(=O)[C@H](CC(C)C)NC(=O)[C@H](CC(C)C)NC(=O)[C@H](CO)NC(=O)[C@H](CO)NC(=O)c1ccc2c(c1)C(=O)OC21c2ccc(O)cc2Oc2cc(O)ccc21)C(=O)N[C@@H](CC(=O)O)C(=O)O [SSL-9, SSLLEKGLD] (5FAM-SSLLEKGLD-OH; N-terminus and C-terminus assumed) | 50% | higher cell uptake in comparison to SSL-25 |  | reduced translocation | 70% |  |
| CC(C)C[C@H](NC(=O)CNC(=O)[C@H](CCCCN)NC(=O)[C@H](CCC(=O)O)NC(=O)[C@H](CC(C)C)NC(=O)[C@H](CC(C)C)NC(=O)[C@H](CO)NC(=O)[C@H](CO)NC(=O)c1ccc2c(c1)C(=O)OC21c2ccc(O)cc2Oc2cc(O)ccc21)C(=O)N[C@@H](CC(=O)O)C(=O)NCC(=O)N[C@@H](C)C(=O)O [SSL-11, SSLLEKGLDG A] (5FAM-SSLLEKGLDGA-OH; N-terminus and C-terminus assumed) | 70% | higher cell uptake in comparison to SSL-25 | 70% | reduced translocation |  |  |
| CC(C)C[C@H](NC(=O)CNC(=O)[C@H](CCCCN)NC(=O)[C@H](CCC(=O)O)NC(=O)[C@H](CC(C)C)NC(=O)[C@H](CC(C)C)NC(=O)[C@H](CO)NC(=O)[C@H](CO)NC(=O)c1ccc2c(c1)C(=O)OC21c2ccc(O)cc2Oc2cc(O)ccc21)C(=O)N[C@@H](C)C(=O)NCC(=O)N[C@@H](C)C(=O)N[C@@H](CCCCN)C(=O)N[C@@H](CCCCN)C(=O)O [SSL-13 D9A, SSLLEKGLAG AKK] (5FAM-SSLLEKGLAGAKK-OH; N-terminus and C-terminus assumed) | 81.5% | higher cell uptake in comparison to SSL-25 | 70% |  |  |  |
| CC(C)C[C@H](NC(=O)CNC(=O)[C@H](CCCCN)NC(=O)[C@H](CCCCN)NC(=O)[C@H](CC(C)C)NC(=O)[C@H](CC(C)C)NC(=O)[C@H](CO)NC(=O)[C@H](CO)NC(=O)c1ccc2c(c1)C(=O)OC21c2ccc(O)cc2Oc2cc(O)ccc21)C(=O)N[C@@H](C)C(=O)O [SSL-9 E5K D9A] (5FAM-SSLLKKGLA-OH; N-terminus and C-terminus assumed) | 81.7% | higher cell uptake in comparison to SSL-25 |  |  | 70% |  |
| CC(C)C[C@H](NC(=O)CNC(=O)[C@H](CCCCN)NC(=O)[C@H](CCCCN)NC(=O)[C@H](CC(C)C)NC(=O)[C@H](CC(C)C)NC(=O)[C@H](CO)NC(=O)[C@H](CO)NC(=O)c1ccc2c(c1)C(=O)OC21c2ccc(O)cc2Oc2cc(O)ccc21)C(=O)N[C@@H](CCCCN)C(=O)O [SSL-9 E5K D9K] (5FAM-SSLLKKGLK-OH; N-terminus and C-terminus assumed) | 22% | reduced but comparable uptake |  |  | 70% |  |
| SSLLEKGLDGAKKAVGGLGKLGKDAVEDLESVGKGAVHDVKDVLDSVL [DCD-1L, SSLLEKGLDGAKKAVGGLGKLGKDAVEDLESVGKGAVHDVKDVLDSVL] |  |  |  |  |  | no hemolysis |
